Measured values reported in US20220055989A1, “CONDENSED PYRROLES AS NOVEL BROMODOMAIN INHIBITORS” (ALBERT LUDWING UNIVERSITÄT FREIBURG, priority 2018, published 2022).
pKd: −log10 of the molar value.

How the values were obtained:
TAF1L(2) = biological target: T1, TAF1L(2) (Homo sapiens, UniProt Q8IZX4); experiment: BROMOscan Kd determination TAF1L(2); assay type: binding
T1 construct: FALZ, PBRM1-BD2, BPRM1-BDS, TAF1-BD2, TAF1L-BD2; host or cells: T7 phage grown in E. coli host derived from BL21
T1 sequence (Q8IZX4 1517-1626 limits assumed): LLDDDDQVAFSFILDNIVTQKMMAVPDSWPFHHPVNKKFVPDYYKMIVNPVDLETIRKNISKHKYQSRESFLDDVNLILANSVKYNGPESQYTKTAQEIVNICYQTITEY
Experimental: (§1) Bromodomain profiling was carried out on the basis of BROMOscan™. This platform accounted for the indirect determination of the dissociation constants between 19 bromodomains and the compound of formula (13), by binding competition against a reference immobilized ligand. Compounds that bind the bromodomain prevent its binding to the immobilized ligand thus reducing the amount of protein captured. […] Hits are identified by measuring the amount of bromodomain captured in test versus control samples. Bromodomain assays for Kd determination: T7 phage strains displaying bromodomains were grown in parallel in 24-well blocks in an E. coli host derived from the BL21 strain. E. coli were grown to log-phase and infected with T7 phage from a frozen stock (multiplicity of infection=0.4) and incubated with shaking at 32° C. until lysis (90-150 minutes). The lysates were centrifuged (5,000×g) and filtered (0.2 μm) to remove cell debris. […] Kds were determined using an 11-point 3-fold compound dilution series with one DMSO control point. […] The bromodomain concentration in the eluates was measured by qPCR. […] Most Kds were determined using a compound top concentration=10,000 nM. […] Binding Constants (Kds): Binding constants (Kds) were calculated with a standard dose-response curve using the Hill equation: The Hill Slope was set to −1. […]

BRD8(1) = biological target: T2, BRD8(1) (Homo sapiens, UniProt Q9H0E9); experiment: BROMOscan Kd determination BRD8(1); assay type: binding
T2 construct: T7 phage strains displaying bromodomains were grown; host or cells: T7 phage in E. coli derived from BL21
T2 sequence (Q9H0E9 706-811 limits assumed): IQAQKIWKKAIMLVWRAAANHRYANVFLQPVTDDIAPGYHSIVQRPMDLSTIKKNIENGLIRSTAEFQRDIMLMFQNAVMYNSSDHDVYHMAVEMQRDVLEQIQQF
Experimental: as §1

BRD3(1, 2) = biological target: T3, BRD3(1, 2) (Homo sapiens, UniProt Q15059); experiment: BROMOscan Kd determination BRD3(1, 2); assay type: binding
T3 construct: T7 phage strains displaying bromodomains were grown in parallel; made in house; host or cells: T7 phage grown in an E. coli host derived from the BL21 strain
T3 sequence (Q15059 24-416 limits assumed): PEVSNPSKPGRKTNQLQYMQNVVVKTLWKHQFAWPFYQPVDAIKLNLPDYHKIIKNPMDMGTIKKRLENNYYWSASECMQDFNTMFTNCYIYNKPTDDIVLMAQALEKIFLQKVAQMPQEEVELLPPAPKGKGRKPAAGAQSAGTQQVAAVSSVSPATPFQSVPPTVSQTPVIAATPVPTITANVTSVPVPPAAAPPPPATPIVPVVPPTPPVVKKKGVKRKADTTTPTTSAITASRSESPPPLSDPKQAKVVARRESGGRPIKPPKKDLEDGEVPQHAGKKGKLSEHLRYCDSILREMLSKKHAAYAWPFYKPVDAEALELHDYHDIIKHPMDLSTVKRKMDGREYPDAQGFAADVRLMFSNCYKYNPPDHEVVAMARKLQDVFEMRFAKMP
Experimental: as §1

BRD1 [1] = biological target: T4, BRD1 (Homo sapiens, UniProt O95696); experiment: BROMOscan Kd determination BRD1; assay type: binding
T4 construct: T7 phage strains displaying bromodomains were grown in parallel; made in house; host or cells: T7 phage grown in an E. coli host derived from the BL21 strain
T4 sequence (O95696 562-666 limits assumed): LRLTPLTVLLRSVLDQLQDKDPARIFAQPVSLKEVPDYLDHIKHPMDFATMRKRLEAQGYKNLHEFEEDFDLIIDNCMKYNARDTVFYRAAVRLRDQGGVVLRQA
Experimental: as §1

SMARCA2 = biological target: T5, SMARCA2 (Homo sapiens, UniProt P51531); experiment: BROMOscan Kd determination SMARCA2; assay type: binding
T5 construct: T7 phage strains displaying bromodomains were grown in parallel; host or cells: T7 phage grown in E. coli host derived from BL21
T5 sequence (P51531 1378-1506 limits assumed): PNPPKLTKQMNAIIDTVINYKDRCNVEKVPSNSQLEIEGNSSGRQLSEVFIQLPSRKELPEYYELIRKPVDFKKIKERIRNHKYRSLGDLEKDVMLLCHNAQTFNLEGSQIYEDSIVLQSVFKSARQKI
Experimental: as §1

HL-60 cells = experiment: GI50 in a culture of HL-60 cells; assay type: cell-based; conditions: concentration required to reduce the population of a culture of HL-60 cells by 50%
CECR2 = biological target: T6, CECR2 (Homo sapiens, UniProt Q9BXF3); experiment: Bromodomain assay % Ctrl determination CECR2; conditions: lower numbers indicate a stronger binding
T6 construct: T7 phage strains displaying bromodomains were grown; host or cells: T7 phage in E. coli derived from BL21
T6 sequence (Q9BXF3 434-538 limits assumed): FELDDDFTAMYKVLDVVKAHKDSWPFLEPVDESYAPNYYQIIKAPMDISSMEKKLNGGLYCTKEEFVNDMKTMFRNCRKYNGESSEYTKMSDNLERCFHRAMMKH
Experimental: (§2) Compounds that bind the bromodomain prevent its binding to the immobilized ligand thus reducing the amount of protein captured. […] Hits are identified by measuring the amount of bromodomain captured in test versus control samples. Bromodomain assays for % Ctrl determination: T7 phage strains displaying bromodomains were grown in parallel in 24-well blocks in an E. coli host derived from the BL21 strain. E. coli were grown to log-phase and infected with T7 phage from a frozen stock (multiplicity of infection=0.4) and incubated with shaking at 32° C. until lysis (90-150 minutes). The lysates were centrifuged (5,000×g) and filtered (0.2 μm) to remove cell debris. […] The liganded beads were blocked with excess biotin and washed with blocking buffer (SeaBlock (Pierce), 1% BSA, 0.05% Tween 20, 1 mM DTT) to remove unbound ligand and to reduce non-specific phage binding. […] Test compounds were prepared as 1000× stocks in 100% DMSO and subsequently diluted 1:25 in monoethylene glycol (MEG). The compounds were then diluted directly into the assays such that the final concentrations of DMSO and MEG were 0.1% and 2.4%, respectively. All reactions were performed in polypropylene 384-well plates in a final volume of 0.02 ml. […] The bromodomain concentration in the eluates was measured by qPCR. […]

BRD1 [2] = biological target: T4, BRD1; experiment: Bromodomain assay % Ctrl determination BRD1; conditions: lower numbers indicate a stronger binding
Experimental: as §2

EP300 = biological target: T7, EP300 (Homo sapiens, UniProt Q09472); experiment: Bromodomain assay % Ctrl determination EP300; conditions: lower numbers indicate a stronger binding
T7 construct: T7 phage strains displaying bromodomains were grown; host or cells: T7 phage in E. coli derived from BL21
T7 sequence (Q09472 1049-1156 limits assumed): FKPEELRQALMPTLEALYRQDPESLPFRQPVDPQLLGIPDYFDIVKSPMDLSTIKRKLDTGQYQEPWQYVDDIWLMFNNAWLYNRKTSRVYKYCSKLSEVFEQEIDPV
Experimental: as §2

BRDT(1) = biological target: T8, BRDT(1) (Homo sapiens, UniProt Q58F21); experiment: Bromodomain assay % Ctrl determination BRDT(1); conditions: lower numbers indicate a stronger binding
T8 construct: T7 phage strains displaying bromodomains were grown; host or cells: T7 phage in E. coli derived from BL21
Experimental: as §2

WDR9(2) = biological target: T9, WDR9(2) (Homo sapiens, UniProt Q9NSI6); experiment: Bromodomain assay % Ctrl determination WDR9(2); conditions: lower numbers indicate a stronger binding
T9 construct: T7 phage strains displaying bromodomains were grown in parallel; host or cells: T7 phage grown in E. coli host derived from BL21
T9 sequence (Q9NSI6 1313-1418 limits assumed): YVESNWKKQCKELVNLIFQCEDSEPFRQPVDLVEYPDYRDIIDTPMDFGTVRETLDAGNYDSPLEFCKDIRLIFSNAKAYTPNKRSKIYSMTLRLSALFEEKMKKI
Experimental: as §2

BAZ2A = biological target: T10, BAZ2A (Homo sapiens, UniProt Q9UIF9); experiment: Bromodomain assay % Ctrl determination BAZ2A; conditions: lower numbers indicate a stronger binding
T10 construct: T7 phage strains displaying bromodomains were grown in parallel; made in house; host or cells: T7 phage grown in an E. coli host derived from the BL21 strain
T10 sequence (Q9UIF9 1793-1897 limits assumed): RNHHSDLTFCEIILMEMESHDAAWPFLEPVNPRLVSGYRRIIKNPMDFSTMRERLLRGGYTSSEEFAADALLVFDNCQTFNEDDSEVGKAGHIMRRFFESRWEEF
Experimental: as §2

PCAF = biological target: T11, PCAF (Homo sapiens, UniProt Q92831); experiment: Bromodomain assay % Ctrl determination PCAF; conditions: lower numbers indicate a stronger binding
T11 construct: T7 phage strains displaying bromodomains were grown in parallel; host or cells: T7 phage grown in E. coli host derived from BL21
T11 sequence (Q92831 723-827 limits assumed): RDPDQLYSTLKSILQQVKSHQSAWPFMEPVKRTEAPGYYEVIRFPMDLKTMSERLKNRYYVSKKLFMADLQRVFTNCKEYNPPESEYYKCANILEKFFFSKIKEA
Experimental: as §2

ATAD2B = biological target: T12, ATAD2B (Homo sapiens, UniProt Q9ULI0); experiment: Bromodomain assay % Ctrl determination ATAD2B; conditions: lower numbers indicate a stronger binding
T12 construct: T7 phage strains displaying bromodomains were grown in parallel; made in house; host or cells: T7 phage grown in an E. coli host derived from the BL21 strain
T12 sequence (Q9ULI0 951-1066 limits assumed): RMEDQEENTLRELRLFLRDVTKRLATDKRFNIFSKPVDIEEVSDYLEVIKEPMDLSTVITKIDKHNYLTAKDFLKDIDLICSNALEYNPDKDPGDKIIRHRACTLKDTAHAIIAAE
Experimental: as §2

BRD2(2) = biological target: T13, BRD2(2) (Homo sapiens, UniProt P25440); experiment: Bromodomain assay % Ctrl determination BRD2(2); conditions: lower numbers indicate a stronger binding
T13 construct: T7 phage strains displaying bromodomains were grown in parallel; made in house; host or cells: T7 phage grown in an E. coli host derived from the BL21 strain
T13 sequence (P25440 344-453 limits assumed): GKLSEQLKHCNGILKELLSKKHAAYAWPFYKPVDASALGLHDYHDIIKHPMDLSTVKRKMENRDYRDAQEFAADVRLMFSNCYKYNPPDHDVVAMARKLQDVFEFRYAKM
Experimental: as §2

BRPF3 = biological target: T14, BRPF3 (Homo sapiens, UniProt Q9ULD4); experiment: Bromodomain assay % Ctrl determination BRPF3; conditions: lower numbers indicate a stronger binding
T14 construct: T7 phage strains displaying bromodomains were grown; host or cells: T7 phage in E. coli derived from BL21
T14 sequence (Q9ULD4 589-693 limits assumed): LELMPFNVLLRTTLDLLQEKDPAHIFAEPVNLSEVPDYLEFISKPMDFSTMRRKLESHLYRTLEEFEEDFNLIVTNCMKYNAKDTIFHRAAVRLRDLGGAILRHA
Experimental: as §2

GCN5L2 = biological target: T15, GCN5L2 (Homo sapiens, UniProt Q92830); experiment: Bromodomain assay % Ctrl determination GCN5L2; conditions: lower numbers indicate a stronger binding
T15 construct: T7 phage strains displaying bromodomains were grown in parallel; host or cells: T7 phage grown in E. coli host derived from BL21
T15 sequence (Q92830 728-832 limits assumed): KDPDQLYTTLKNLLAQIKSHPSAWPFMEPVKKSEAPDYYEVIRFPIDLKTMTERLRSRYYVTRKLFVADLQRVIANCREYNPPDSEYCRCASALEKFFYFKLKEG
Experimental: as §2

| pKd (TAF1L(2)) | pKd (BRD8(1)) | pKd (BRD3(1, 2)) | pKd (BRD1 [1]) | pKd (SMARCA2) | GI50HL60 (HL-60 cells) [nM] | % Ctrl @ 10 000 nM CECR2 (CECR2) [% Ctrl] | % Ctrl @ 10 000 nM BRD1 (BRD1 [2]) [% Ctrl] | % Ctrl @ 10 000 nM EP300 (EP300) [% Ctrl] | % Ctrl @ 10 000 nM BRDT(1) (BRDT(1)) [% Ctrl] | % Ctrl @ 10 000 nM WDR9(2) (WDR9(2)) [% Ctrl] | % Ctrl @ 10 000 nM BAZ2A (BAZ2A) [% Ctrl] | % Ctrl @ 10 000 nM PCAF (PCAF) [% Ctrl] | % Ctrl @ 10 000 nM ATAD2B (ATAD2B) [% Ctrl] | % Ctrl @ 10 000 nM BRD2(2) (BRD2(2)) [% Ctrl] | % Ctrl @ 10 000 nM BRPF3 (BRPF3) [% Ctrl] | % Ctrl @ 10 000 nM GCN5L2 (GCN5L2) [% Ctrl] | SMILES |
| --- | --- | --- | --- | --- | --- | --- | --- | --- | --- | --- | --- | --- | --- | --- | --- | --- | --- |
| 5.17 | 5.59 | 7.00 | 5.51 | < 5.00 | – | – | – | – | – | – | – | – | – | – | – | – | Cc1[nH]c(-c2cc(N)ccc2Cl)c2c1C(=O)CCCC2 [Compound 23] |
| – | – | – | – | – | 170 | 1.3 | 26 | 1.4 | 0 | 81 | 24 | 20 | 97 | 0.1 | 35 | 44 | COc1ccc(S(=O)(=O)N2CCOCC2)cc1NC(=O)c1[nH]c(C)c2c1CCCCC2=O [Compound 13, N-(2-methoxy-5-(morpholinosulfonyl)phenyl)-3-methyl-4-oxo-2,4,5,6,7,8-hexahydrocyclohepta[c]pyrrole-1-carboxamide] |
